Measurements as given in US20110014308A1, “NOVEL COMPOSITIONS AND USE THEREOF FOR THE TREATMENT, CO-TREATMENT OR PREVENTION OF INFLAMMATORY DISORDERS” (priority 2007, published 2011).

What was measured:
Format in all cases: cell-based
human aggrecan = assay: Aggrecan gene expression (mRNA, RT-PCR) in normal human chondrocytes; conditions: anabolic gene, % of unstimulated cells (set at 100%), CS 500 mg/L, or both; for Aggrecan (unstim., 4 hrs) level of gene expression: HT 1.925 mg/L (12.5 micromol/L); for Aggrecan (unstim. 4 d) level of gene expression: HT 1.925 mg/L
Source text: (§1) In articular cartilage, the balance between anabolic (build-up) and catabolic (break down) events needs to be maintained in order to prevent hypertrophy and excessive degradation of extracellular matrix (ECM), respectively. The ECM is built up of collagen and proteoglycans that are the products of collagen genes, for example human collagen I or aggrecan genes which are actived during anabolic events. A substance which increases expression of these genes or the respective proteins (i.e. collagen and aggrecan) favors cartilage regeneration and/or build-up. The effect of HT in combination with chondroitin was tested on the expression of human aggrecan or collagen I in normal human chondrocytes (derived from knee) (CC-2550; Cambrex, respectively). OH-tyrosol (HT) was from Cayman Chemicals or from DSM; chondroitin sulfate (from shark) was purchased from Sigma. A control experiment without the compounds was done concomitantly to compare the expression of these genes. Normal human chondrocytes were cultured for 4 hours or 4 days with HT (at 12.5 micromol/L), chondroitin (at 500 mg/L) as well as with both. The level of mRNA was determined by RT-PCR (Richard et al. Mol. Nutr. Food Res. 49, 431-442, 2005) and expressed relative to the level observed in cells cultured without the substances. The given values indicate the level of gene expression (in % of unstimulated cells [set at 100%] for anabolic and anti-catabolic genes; in % of IL1beta-treated cells [set at 100%], for catabolic genes). The combination of HT was used at 12.5 micromol/L (=1.925 mg/L), while the chondroitin sulfate (CS) was tested at 500 mg/L. The results shown in Table 1 indicate that a HT altered the expression of anabolic genes such as aggrecan or collagen. Similar effects were elicited by chondroitin. Yet, when combined the observed increase in gene expression exceeded the expected value reflecting a synergistic interaction.

human collagen I = assay: Collagen I gene expression (mRNA, RT-PCR) in normal human chondrocytes; conditions: anabolic gene, % of unstimulated cells (set at 100%), HT 1.925 mg/L, CS 500 mg/L, or both
Source text: as §1, with “The given values indicate the level of gene expression (in % of unstimulated cells [set at 100%] for anabolic and anti-catabolic genes; in % of IL1beta-treated cells [set at 100%], for catabolic genes). The combination of HT was used at 12.5 micromol/L (=1.925 mg/L), while the chondroitin sulfate (CS) was tested at 500 mg/L. The results shown in Table 1 indicate that a HT altered the expression of anabolic genes such as aggrecan or collagen. Similar effects were elicited by chondroitin. Yet, when combined the observed increase in gene expression exceeded the expected value reflecting a synergistic interaction.” left out

MMP-1 = MMP-1 gene expression (mRNA, RT-PCR) in IL1beta-treated normal human chondrocytes; conditions: catabolic gene, % of IL1beta-treated cells (set at 100%), HT 1.925 mg/L, CS 500 mg/L, or both
Description: (§2) Catabolic events are controlled by the expression of genes, e.g. those genes that encode matrix metalloproteinases (MMPs) that eventually break down collagen. Of the MMPs, MMP-1 and MMP-3 have a major role in the degradation of the ECM and thus in cartilage erosion. The effect of HT in combination with chondroitin was tested on the expression of human aggrecan or collagen I in normal human chondrocytes (derived from knee) (CC-2550; Cambrex, respectively). OH-tyrosol (HT) was from Cayman Chemicals or from DSM; chondroitin sulfate (from shark) was purchased from Sigma. A control experiment without the compounds was done concomitantly to compare the expression of these genes. Normal human chondrocytes were cultured for 4 hours or 4 days with HT (at 12.5 micromol/L), chondroitin (at 500 mg/L) as well as with both. The level of mRNA was determined by RT-PCR (Richard et al. Mol. Nutr. Food Res. 49, 431-442, 2005) and expressed relative to the level observed in cells cultured without the substances. The given values indicate the level of gene expression (in % of unstimulated cells [set at 100%] for anabolic and anti-catabolic genes; in % of IL1beta-treated cells [set at 100%], for catabolic genes). […]

MMP-2 = MMP-2 gene expression (mRNA, RT-PCR) in IL1beta-treated normal human chondrocytes; conditions: catabolic gene, % of IL1beta-treated cells (set at 100%), HT 1.925 mg/L, CS 500 mg/L, or both
Description: as §2

MMP-13 = MMP-13 gene expression (mRNA, RT-PCR) in IL1beta-treated normal human chondrocytes; conditions: catabolic gene, % of IL1beta-treated cells (set at 100%), HT 1.925 mg/L, CS 500 mg/L, or both
Description: as §2

IL-1beta = IL-1beta gene expression (mRNA, RT-PCR) in IL1beta-treated normal human chondrocytes; conditions: catabolic gene, % of IL1beta-treated cells (set at 100%), HT 1.925 mg/L, CS 500 mg/L, or both
Description: as §1, with “The” for “In articular cartilage, the balance between anabolic (build-up) and catabolic (break down) events needs to be maintained in order to prevent hypertrophy and excessive degradation of extracellular matrix (ECM), respectively. The ECM is built up of collagen and proteoglycans that are the products of collagen genes, for example human collagen I or aggrecan genes which are actived during anabolic events. A substance which increases expression of these genes or the respective proteins (i.e. collagen and aggrecan) favors cartilage regeneration and/or build-up. The”

| Molecule | Aggrecan (unstim., 4 hrs) level of gene expression (human aggrecan) | Aggrecan (unstim. 4 d) level of gene expression (human aggrecan) | Collagen 1 (unstim. 4 d) level of gene expression (human collagen I) | MMP-1 (stim., 4 d) level of gene expression (MMP-1) | MMP-2 (stim., 4 hrs) level of gene expression (MMP-2) | MMP-13 (stim., 4 hrs) level of gene expression (MMP-13) | IL-1beta (stim., 4 hrs) level of gene expression (IL-1beta) |
| --- | --- | --- | --- | --- | --- | --- | --- |
| OCCc1ccc(O)c(O)c1 [HT, 2-(3,4-dihydroxyphenyl)-ethanol] | 115% | 118% | 113% | 109% | 102% | 96% | 83% |
| chondroitin sulfate [CS] | 113% | 97% | 103% | 122% | 116% | 90% | 91% |
